Assay results: patent publication US4064235A, “Dopamine derivative compounds, preparation thereof and medicine containing same” (Eisai Co., Ltd., priority 1975, dated 1977)

Tests used:
renal blood flow rate = assay: Measurement of the renal blood flow increasing activity in anesthetized dogs; assay type: in vivo; conditions: for Duration Time of Activity / Renal Blood Flow Rate Increase Ratio (%): 1 mg/Kg/min into the crotch vein continuously over 3 minutes; for Renal Blood Flow Rate Increase Ratio (%): increase at highest flow rate relative to flow rate before administration; for intensity of the activity and activity duration compared with known compound A: dogs, 1 mg/Kg/min for 3 minutes
Description: Measurement of the renal blood flow increasing activity. Compounds Tested:
Crossbred adult dogs (irrespective of the sex) having a body weight of about 15 Kg were used.
The test animal was anesthetized by an intravenous injection of pentobarbital sodium salt (30 mg/Kg) and the abdominal region was fixed. The back region was opened and a probe of a rectangular wave electromagnetic flow meter (Model MF-26 manufactured by Nippon Koden K. K.) was attached to the artery of the left kidney to determine the renal blood flow rate (R. B. F.).
Each test compound was dissolved in distilled water and administered to the test animal from a vinyl resin fine tube inserted and fixed into the crotch vein. The amount administered was 1 mg/Kg/min. and the administration was conducted continuously over a period of 3 minutes.
The degree of increase of the renal blood flow rate by administration of the test compound was expressed in terms of the increase ratio (%), namely the ratio of the increase of the flow rate (when the flow rate was highest) to the flow rate before administration of the test compound. The duration of the activity was simultaneously examined.

renal blood flow [1] = conditions: cited from earlier work
renal blood flow [2] = assay: tracing experiment on renal blood flow promoting activity of isoleucyl dopamine; assay type: in vivo
Source text: Because of this specific activity, it has been considered to use dopamine for improving renal insufficiency accompanied by hyperpiesia or cardiac insufficiency and other similar diseases. However, since dopamine is promptly converted to norepinephrine or the like by metabolism and the activity is insufficient in duration, it has been difficult to put this compound into practical use.

Molecule	Duration Time of Activity (renal blood flow rate; anesthetized dogs) [min]	Renal Blood Flow Rate Increase Ratio (%) (renal blood flow rate; anesthetized dogs)	intensity of the activity and activity duration compared with known compound A (renal blood flow rate)	durability of renal blood flow increasing activity compared with dopamine (renal blood flow [1]; literature: Am. Chem. So., 165, Meet. MEDI. 11, 1973)	activity retention time compared with dopamine (renal blood flow [2])	renal blood flow promoting activity (renal blood flow [2])	activity of increasing the renal blood flow (renal blood flow [1]; literature: Circulation Research, vol. XVI, 1965)	renal blood flow rate change by administration (renal blood flow rate; anesthetized dogs)
CC(=O)O.CCC(C)C(N)C(=O)NC(C(=O)NCCc1ccc(O)c(O)c1)C(C)C (stereo not drawn) [Compound A of Present Invention, n-l-isoleucylvalyl dopamine acetate]	10	33	excellent over the known compound A					
CC(=O)O.NCC(=O)N1CCC[C@H]1C(=O)NCCc1ccc(O)c(O)c1 [Compound C of Present Invention, N-Glycyl-L-prolyl dopamine acetate]	60	30	excellent over the known compound A					
CC(=O)O.CC(C)C[C@H](NC(=O)CNC(=O)CN)C(=O)NCCc1ccc(O)c(O)c1 [Compound D of Present Invention, N-Glycylglycyl-L-leucyl dopamine acetate]	20	37	excellent over the known compound A					
CC(=O)O.NCC(=O)NCC(=O)N1CCC[C@H]1C(=O)NCCc1ccc(O)c(O)c1 [Compound E of Present Invention, N-Glycylglycyl-L-prolyl dopamine acetate]	30	36	excellent over the known compound A					
CC(=O)O.CC[C@H](C)[C@H](N)C(=O)NCCc1ccc(O)c(O)c1 [Known Compound A, N-L-Isoleucyl dopamine acetate]	6	10		more durable than that of dopamine	longer than that of dopamine	low		
NCCc1ccc(O)c(O)c1 [dopamine]							specific activity of increasing the renal blood flow	increased
N-Glycyl-L-glutamyl dopamine acetate [Compound B of Present Invention]	60	33	excellent over the known compound A					
